Measured values from ChEMBL document CHEMBL1201862, “PubChem BioAssay data set” (2004).
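Values below derive from 48-hour exposures of cells grown in 96-well plates, with endpoints linearly interpolated between the two concentrations bracketing the appropriate inhibition level. GI50 = concentration required for 50% inhibition of growth.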 The source made the active and inactive calls. Rule as the data show it: active = GI50 up to about 1.1 µM and inactive = higher.

Experiments:
Assay in all cases: NCI anticancer screen, dose series, 48 h
NCI-H460 = test system: NCI-H460
SK-MEL-2 = test system: SK-MEL-2
UO-31 = test system: UO-31
CAKI-1 = test system: CAKI-1
RPMI-8226 = test system: RPMI-8226
HCT-116 = test system: HCT-116
SF-295 = test system: SF-295
NCI-H522 = test system: NCI-H522
HCC 2998 = test system: HCC 2998
RXF 393 = test system: RXF 393
SF-539 = test system: SF-539
SNB-19 = test system: SNB-19
MOLT-4 = test system: MOLT-4
HOP-92 = test system: HOP-92
COLO 205 = test system: COLO 205
NCI-H226 = test system: NCI-H226
CCRF-CEM = test system: CCRF-CEM
786-0 = test system: 786-0
TK-10 = test system: TK-10
ACHN = test system: ACHN

Compound | GI50 (NCI-H460) | GI50 (SK-MEL-2) | GI50 (UO-31) | GI50 (CAKI-1) | GI50 (RPMI-8226) | GI50 (HCT-116) | GI50 (SF-295) | GI50 (NCI-H522) | GI50 (HCC 2998) | GI50 (RXF 393) | GI50 (SF-539) | GI50 (SNB-19) | GI50 (MOLT-4) | GI50 (HOP-92) | GI50 (COLO 205) | GI50 (NCI-H226) | GI50 (CCRF-CEM) | GI50 (786-0) | GI50 (TK-10) | GI50 (ACHN)
CCN(CC)CCNC(=O)C1COc2ccc(-c3cc(=O)c4ccccc4o3)cc2O1 (stereo not given) | 16.8 µM (inactive) | 19.8 µM (inactive) | 16 µM (inactive) | 20.5 µM (inactive) | 22.5 µM (inactive) | 17.8 µM (inactive) | 18.5 µM (inactive) | 18.2 µM (inactive) | 19.2 µM (inactive) | 20 µM (inactive) | 15.8 µM (inactive) | 20.2 µM (inactive) | 20.6 µM (inactive) | 19.1 µM (inactive) | 17.9 µM (inactive) | 16.6 µM (inactive) | 19.1 µM (inactive) | – | – | –
Cc1ccc2c(c1)C=CC(C#N)N2C(=O)Oc1ccccc1 (stereo not given) | 29.6 µM (inactive) | 22.7 µM (inactive) | 27.7 µM (inactive) | 57.4 µM (inactive) | 17.9 µM (inactive) | 37.9 µM (inactive) | – | 16.3 µM (inactive) | 16.6 µM (inactive) | 37.7 µM (inactive) | 60.7 µM (inactive) | 31.8 µM (inactive) | 19.6 µM (inactive) | 30.2 µM (inactive) | 25.9 µM (inactive) | 31 µM (inactive) | 17.2 µM (inactive) | 43.7 µM (inactive) | 31 µM (inactive) | 27 µM (inactive)
CCOC(=O)/C(=C\c1cccc(C)c1)C(C)=O | 20.8 µM (inactive) | 10.1 µM (inactive) | 13.8 µM (inactive) | 20.9 µM (inactive) | 8.17 µM (inactive) | 16.7 µM (inactive) | 23.4 µM (inactive) | 10 µM (inactive) | 15.1 µM (inactive) | 11.5 µM (inactive) | 16.7 µM (inactive) | 17.7 µM (inactive) | 10.2 µM (inactive) | 6.7 µM (inactive) | 19.2 µM (inactive) | 24.9 µM (inactive) | – | 13.6 µM (inactive) | 16.3 µM (inactive) | 22.4 µM (inactive)
NNC(=O)c1cc([N+](=O)[O-])ccc1NC(=O)C12CC3CC(CC(C3)C1)C2 | 18.1 µM (inactive) | – | 7.98 µM (inactive) | 5.7 µM (inactive) | 12.2 µM (inactive) | 7.74 µM (inactive) | 14 µM (inactive) | 3 µM (inactive) | 10.5 µM (inactive) | 7.98 µM (inactive) | 13.5 µM (inactive) | 2.98 µM (inactive) | 3.32 µM (inactive) | 12.9 µM (inactive) | 6.04 µM (inactive) | 4.62 µM (inactive) | 2.27 µM (inactive) | 11.7 µM (inactive) | 12.2 µM (inactive) | 10 µM (inactive)
COc1ccc(C2SCC(=O)N2NC(=O)c2ccncc2)cc1F (stereo not given) | > 100 µM (inactive) | > 100 µM (inactive) | – | > 100 µM (inactive) | > 100 µM (inactive) | > 100 µM (inactive) | > 100 µM (inactive) | > 100 µM (inactive) | > 100 µM (inactive) | > 100 µM (inactive) | – | > 100 µM (inactive) | – | > 100 µM (inactive) | > 100 µM (inactive) | > 100 µM (inactive) | – | – | > 100 µM (inactive) | > 100 µM (inactive)
COc1ccc(/C=c2\sc3nnc(CCC(=O)Nc4cccc(C(F)(F)F)c4)n3c2=O)cc1 | > 100 µM (inactive) | 72.9 µM (inactive) | > 100 µM (inactive) | > 79.8 µM (inactive) | 38.4 µM (inactive) | > 100 µM (inactive) | > 100 µM (inactive) | – | > 100 µM (inactive) | 41.5 µM (inactive) | > 100 µM (inactive) | > 100 µM (inactive) | 4.56 µM (inactive) | > 100 µM (inactive) | > 100 µM (inactive) | > 100 µM (inactive) | 37.2 µM (inactive) | > 71.8 µM (inactive) | > 100 µM (inactive) | > 100 µM (inactive)
CCOC(=O)/C(O)=C1\C(=O)N(C)C(=O)C1c1cccc(OC)c1 (stereo not given) | > 100 µM (inactive) | > 100 µM (inactive) | > 100 µM (inactive) | > 100 µM (inactive) | > 100 µM (inactive) | > 100 µM (inactive) | > 100 µM (inactive) | > 100 µM (inactive) | > 100 µM (inactive) | > 100 µM (inactive) | > 100 µM (inactive) | > 100 µM (inactive) | > 100 µM (inactive) | > 100 µM (inactive) | > 100 µM (inactive) | > 100 µM (inactive) | > 100 µM (inactive) | – | – | –
CCOc1ccccc1NC(=O)/C=C1\NC(=O)CS1 | > 100 µM (inactive) | > 100 µM (inactive) | > 100 µM (inactive) | > 100 µM (inactive) | 62.5 µM (inactive) | > 100 µM (inactive) | > 100 µM (inactive) | 86.1 µM (inactive) | > 100 µM (inactive) | > 100 µM (inactive) | > 100 µM (inactive) | > 100 µM (inactive) | > 100 µM (inactive) | > 100 µM (inactive) | > 100 µM (inactive) | > 100 µM (inactive) | 69 µM (inactive) | > 100 µM (inactive) | > 100 µM (inactive) | –
Nn1c(CNc2ccc(-c3nnc(Nc4ccc(Cl)cc4)n3N)cc2)nnc1Nc1ccc(Cl)cc1 | > 100 µM (inactive) | > 100 µM (inactive) | 61.4 µM (inactive) | > 100 µM (inactive) | 61.9 µM (inactive) | 37.1 µM (inactive) | > 100 µM (inactive) | 75.5 µM (inactive) | > 100 µM (inactive) | > 100 µM (inactive) | – | > 100 µM (inactive) | 55.7 µM (inactive) | > 100 µM (inactive) | > 100 µM (inactive) | > 100 µM (inactive) | – | > 100 µM (inactive) | > 100 µM (inactive) | > 100 µM (inactive)
c1ccc(-c2nc3ccccc3n3c(CN4CCCCC4)nnc23)cc1 | > 100 µM (inactive) | 35.1 µM (inactive) | – | > 100 µM (inactive) | > 100 µM (inactive) | > 100 µM (inactive) | 49.4 µM (inactive) | > 100 µM (inactive) | > 100 µM (inactive) | 35.7 µM (inactive) | 51.3 µM (inactive) | 36.2 µM (inactive) | > 100 µM (inactive) | 31.2 µM (inactive) | > 100 µM (inactive) | > 100 µM (inactive) | > 100 µM (inactive) | 37.3 µM (inactive) | 35.2 µM (inactive) | 28.7 µM (inactive)
O=C(O)C1C(=O)Oc2c(cccc2[N+](=O)[O-])C1O (stereo not given) | > 100 µM (inactive) | > 100 µM (inactive) | – | > 100 µM (inactive) | > 100 µM (inactive) | > 100 µM (inactive) | > 100 µM (inactive) | > 100 µM (inactive) | > 100 µM (inactive) | > 100 µM (inactive) | > 100 µM (inactive) | > 100 µM (inactive) | > 100 µM (inactive) | > 100 µM (inactive) | > 100 µM (inactive) | > 100 µM (inactive) | > 100 µM (inactive) | > 100 µM (inactive) | > 100 µM (inactive) | > 100 µM (inactive)
C[P+](c1ccccc1)(c1ccc(Cl)cc1)c1ccc(Cl)cc1 | 24.2 µM (inactive) | 19.9 µM (inactive) | 38 µM (inactive) | – | 0.432 µM (active) | 6.93 µM (inactive) | – | 12.9 µM (inactive) | 8.61 µM (inactive) | 46.2 µM (inactive) | 19.8 µM (inactive) | 13 µM (inactive) | – | 10.3 µM (inactive) | 10.4 µM (inactive) | 24.3 µM (inactive) | – | 31.3 µM (inactive) | 14.2 µM (inactive) | 29.1 µM (inactive)
O=C(C/C(=N/O)C(F)(F)F)c1cccs1 | > 100 µM (inactive) | 30.8 µM (inactive) | > 100 µM (inactive) | > 100 µM (inactive) | > 100 µM (inactive) | > 100 µM (inactive) | > 100 µM (inactive) | – | > 100 µM (inactive) | > 100 µM (inactive) | > 100 µM (inactive) | 50 µM (inactive) | > 100 µM (inactive) | > 100 µM (inactive) | > 100 µM (inactive) | > 100 µM (inactive) | > 100 µM (inactive) | > 100 µM (inactive) | > 100 µM (inactive) | > 100 µM (inactive)
COc1ccc(/N=C2/C(=N/c3ccc(OC)cc3)N(c3ccccc3)C(=S)N2N=C=C2Sc3ccccc3N2C)cc1 | > 100 µM (inactive) | > 100 µM (inactive) | > 100 µM (inactive) | > 100 µM (inactive) | > 100 µM (inactive) | 88.1 µM (inactive) | > 100 µM (inactive) | > 100 µM (inactive) | > 100 µM (inactive) | 3.75 µM (inactive) | > 100 µM (inactive) | > 100 µM (inactive) | > 100 µM (inactive) | 47.3 µM (inactive) | > 100 µM (inactive) | > 100 µM (inactive) | – | > 100 µM (inactive) | 32.1 µM (inactive) | > 100 µM (inactive)
O=S(=O)(O)c1cc(/N=[N+](\[O-])c2ccc(/N=N/c3ccccc3)cc2S(=O)(=O)O)ccc1/C=C/c1ccc(/N=[N+](\[O-])c2ccc(/N=N/c3ccccc3)cc2S(=O)(=O)O)cc1S(=O)(=O)O | > 100 µM (inactive) | > 100 µM (inactive) | > 100 µM (inactive) | – | > 100 µM (inactive) | > 100 µM (inactive) | > 58.3 µM (inactive) | > 100 µM (inactive) | > 100 µM (inactive) | > 100 µM (inactive) | > 31.6 µM (inactive) | > 100 µM (inactive) | > 100 µM (inactive) | > 100 µM (inactive) | > 100 µM (inactive) | > 32.6 µM (inactive) | > 95.3 µM (inactive) | – | – | –
